Source: patent US20220324835A1 (Nurix Therapeutics, Inc., priority 2018, published 2022)

Assays:
[1] = molecular target: T1, Cbl-b (Homo sapiens, UniProt Q13191); experiment: Cbl-b inhibition assay (Cbl-b activity assay, FRET, Biological Example 1; 100 mM NaCl, 60 nM Src kinase); format: biochemical; details: upper bound stated in text lists; read-out: IC50 values in the Cbl-b inhibition assay of Biological Example 1
How it was run: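 Steps: Src kinase phosphorylates N-terminal biotinylated Avi-tagged Cbl-b; phosphorylated Cbl-b binds Bodipy-fluorescein ubiquitin-loaded UbcH5B; streptavidin-terbium on Cbl-b sits close to the fluorescein label, producing FRET. Inhibitors block UbcH5B-Ub binding.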

[2] = test system: T-cell; experiment: IL-2 secretion from T-cells co-stimulated with anti-CD3 and anti-CD28 antibody (Biological Example 2); format: cell-based, human; details: Homo sapiens, T-cell, primary human total T-cells, baseline = anti-CD3/anti-CD28 stimulated cells without inhibitor, read-out: IL-2 secretion, Anti-CD3/Anti-CD28 stimulation, fold change over baseline; for fold induction at 0.3 µM: 0.3 μM compound; for fold induction at 1 µM: 1 μM compound
How it was run: (§1)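 No assay protocol given; T-cells stimulated with anti-CD3 alone or anti-CD3 plus anti-CD28, with or without Cbl-b inhibitor. Activation read as IL-2 secretion or CD25 surface staining, expressed as fold over baseline from uninhibited cells […].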

[3] = test system: T-cell; experiment: CD25 cell surface staining on T-cells co-stimulated with anti-CD3 and anti-CD28 antibody (Biological Example 2); format: cell-based, human; details: Homo sapiens, T-cell, primary human total T-cells, baseline = anti-CD3/anti-CD28 stimulated cells without inhibitor, read-out: CD25 staining, Anti-CD3/Anti-CD28 stimulation, fold change over baseline; for fold induction at 0.3 µM: 0.3 μM compound; for fold induction at 1 µM: 1 μM compound
How it was run: as §1

[4] = molecular target: T1, Cbl-b; experiment: Cbl-b activity assay (Cbl-b inhibition assay), TR-FRET of Cbl-b interaction with UbcH5B-Ub; format: biochemical; details: assay buffer with 100 mM NaCl, 60 nM Src kinase; read-out: Cbl-b activity IC50
How it was run: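 TR-FRET readout of Cbl-b binding to Bodipy-fluorescein N-terminally labeled Ub conjugated to UbcH5B C85K, measured with compound present. After compound incubation, 60 nM Src kinase with 1 mM ATP and 5 mM MgCl2 (final) was added for 1.5 h, then a further 1 h incubation; asterisked values used 50 mM NaCl buffer and 30 nM Src.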

[5] = test system: T-cell; experiment: IL-2 secretion from T-cells stimulated with anti-CD3 antibody alone (Biological Example 2); format: cell-based; details: 1 μM compound, primary human total T-cells, read-out: IL-2 secretion, Anti-CD3 stimulation, fold change over baseline
[6] = test system: T-cell; experiment: CD25 cell surface staining on T-cells stimulated with anti-CD3 antibody alone (Biological Example 2); format: cell-based; details: 1 μM compound, primary human total T-cells, baseline = anti-CD3/anti-CD28 stimulated cells without inhibitor, read-out: CD25 staining, Anti-CD3 stimulation, fold change over baseline

T1 sequence (Q13191 36-427): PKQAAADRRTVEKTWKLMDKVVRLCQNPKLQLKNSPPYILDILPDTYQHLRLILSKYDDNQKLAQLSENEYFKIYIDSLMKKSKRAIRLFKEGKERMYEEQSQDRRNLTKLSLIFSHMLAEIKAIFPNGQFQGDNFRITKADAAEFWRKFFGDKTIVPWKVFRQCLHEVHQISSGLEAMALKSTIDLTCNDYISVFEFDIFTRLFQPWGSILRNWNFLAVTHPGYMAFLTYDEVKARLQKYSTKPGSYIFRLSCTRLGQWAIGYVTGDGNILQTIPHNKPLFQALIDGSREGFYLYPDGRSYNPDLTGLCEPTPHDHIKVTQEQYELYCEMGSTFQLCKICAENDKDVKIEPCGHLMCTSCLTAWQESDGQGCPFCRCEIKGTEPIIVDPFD

| Compound | IC50 [1] | fold induction at 0.3 µM [2] | fold induction at 1 µM [2] | fold induction at 0.3 µM [3] | fold induction at 1 µM [3] | IC50 [4] | fold induction at 1 µM [5] | fold induction at 1 µM [6] |
| --- | --- | --- | --- | --- | --- | --- | --- | --- |
| Cc1conc1CC1(c2cccc(NC(=O)c3cc(CN4CCC5(CC5)C4)nc(C4CC4)n3)c2)COC1 [Compound 508, 6-{5-azaspiro[2.4]heptan-5-ylmethyl}-2-cyclopropyl-N-(3-{3-[(4-methyl-1,2-oxazol-3-yl)methyl]oxetan-3-yl}phenyl)pyrimidine-4-carboxamide] | ≤ 100 nM | > 7.5 | > 7.5 | 1.31 to 1.5 | 1.31 to 1.5 | < 100 nM | > 0.201 | > 1 |
| Cc1cc(C(=O)Nc2cccc(C3(Cc4nocc4C)COC3)c2)nc(C2CC2)n1 [Compound 509, 2-cyclopropyl-6-methyl-N-(3-{3-[(4-methyl-1,2-oxazol-3-yl)methyl]oxetan-3-yl}phenyl)pyrimidine-4-carboxamide] | ≤ 100 nM | > 7.5 | > 7.5 | 1.31 to 1.5 | 1.31 to 1.5 | < 100 nM | > 0.201 | > 1 |
| Cc1cc(C(=O)Nc2cccc(C(C)(C)Cc3nncn3C)c2)nc(C2CC2)n1 [Compound 511, 2-cyclopropyl-6-methyl-N-{3-[2-methyl-1-(4-methyl-1,2,4-triazol-3-yl)propan-2-yl]phenyl}pyrimidine-4-carboxamide] | ≤ 100 nM | 5 to 7.5 | > 7.5 | 1.31 to 1.5 | 1.31 to 1.5 | < 100 nM | 0.101 to 0.15 | 0.801 to 1 |
| Cn1cnnc1C(F)(F)[C@](C)(F)c1cccc(NC(=O)c2cc(CN3CC[C@H](F)C3)nc(C3CC3)n2)c1 [Compound 512, 2-cyclopropyl-6-{[(3S)-3-fluoropyrrolidin-1-yl]methyl}-N-{3-[(2R)-1,1,2-trifluoro-1-(4-methyl-1,2,4-triazol-3-yl)propan-2-yl]phenyl}pyrimidine-4-carboxamide] | ≤ 100 nM | 2.51 to 5 | 5 to 7.5 | 1.01 to 1.3 | 1.01 to 1.3 | < 100 nM | 0.051 to 0.1 | 0.801 to 1 |
| Cn1cnnc1CC1(c2cccc(N3Cc4c(cc(OC5CC5)cc4C(F)(F)F)C3=O)c2)COC1 [Compound 513, 6-cyclopropoxy-2-(3-{3-[(4-methyl-1,2,4-triazol-3-yl)methyl]oxetan-3-yl}-phenyl)-4-(trifluoromethyl)-3H-isoindol-1-one] | ≤ 100 nM | 1.01 to 2.5 | 2.51 to 5 | 1.01 to 1.3 | 1.01 to 1.3 | < 100 nM | 0.151 to 0.2 | > 1 |
| Cn1cnnc1CC1(c2cccc(N3Cc4c(cc(OC5CNC5)cc4C(F)(F)F)C3=O)c2)COC1 [Compound 514, 6-(azetidin-3-yloxy)-2-(3-{3-[(4-methyl-1,2,4-triazol-3-yl)methyl]oxetan-3-yl}phenyl)-4-(trifluoromethyl)-3H-isoindol-1-one] | ≤ 100 nM | 1.01 to 2.5 | 1.01 to 2.5 | 1.01 to 1.3 | 1.01 to 1.3 | < 100 nM | 0.051 to 0.1 | 0.801 to 1 |
| Cc1cc(C(=O)Nc2cccc(-c3c(-c4nncn4C)cnn3C)c2)nc(C2CC2)n1 [Compound 522, 2-cyclopropyl-6-methyl-N-(3-(l-methyl-4-(4-methyl-4H-1,2,4-triazol-3-yl)-1H-pyrazol-5-yl)phenyl)pyrimidine-4-carboxamide] | ≤ 300 nM | 1.01 to 2.5 | 1.01 to 2.5 | 1.01 to 1.3 | 1.01 to 1.3 | 100 to 300 nM | 0.101 to 0.15 | 0.601 to 0.8 |
| Cn1cnnc1-c1cnn(C)c1-c1cccc(N2Cc3c(cccc3C(F)(F)F)C2=O)c1 [Compound 523, 2-(3-(l-methyl-4-(4-methyl-4H-1,2,4-triazol-3-yl)-1H-pyrazol-5-yl)phenyl)-4-(trifluoromethyl)isoindolin-1-one] | ≤ 300 nM | 1.01 to 2.5 | 1.01 to 2.5 | 1.01 to 1.3 | 1.01 to 1.3 | 100 to 300 nM | 0.051 to 0.1 | 0.601 to 0.8 |
| Cc1cc(C(=O)Nc2cccc(C3(Cc4nncn4C)CC(F)(F)C3)c2)nc(C2CC2)n1 [Compound 526, 2-cyclopropyl-N-(3-(3,3-difluoro-1-((4-methyl-4H-1,2,4-triazol-3-yl)methyl)cyclobutyl)phenyl)-6-methylpyrimidine-4-carboxamide] | ≤ 100 nM | 5 to 7.5 | > 7.5 | 1.01 to 1.3 | 1.01 to 1.3 | < 100 nM | > 0.201 | > 1 |
| Cn1cnnc1CC1(c2cccc(N3Cc4c(cccc4C(F)(F)F)C3=O)c2)CC(F)(F)C1 [Compound 527, 2-(3-(3,3-difluoro-1-((4-methyl-4H-1,2,4-triazol-3-yl)methyl)cyclobutyl)-phenyl)-4-(trifluoromethyl)isoindolin-1-one] | ≤ 100 nM | 2.51 to 5 | 5 to 7.5 | 1.01 to 1.3 | 1.01 to 1.3 | < 100 nM | > 0.201 | > 1 |
| Cn1cnnc1CC1(c2cccc(N3Cc4c(cc(CN5CCCC(F)(F)CC5)cc4C(F)(F)F)C3=O)c2)COC1 [Compound 528, 6-((4,4-difluoroazepan-1-yl)methyl)-2-(3-(3-((4-methyl-4H-1,2,4-triazol-3-yl)methyl)oxetan-3-yl)phenyl)-4-(trifluoromethyl)isoindolin-1-one] | ≤ 100 nM | > 7.5 | > 7.5 | 1.01 to 1.3 | 1.01 to 1.3 | < 100 nM | > 0.201 | > 1 |
| Cn1cnnc1CC1(c2cccc(N3Cc4c(cc(CC5CCCO5)cc4C(F)(F)F)C3=O)c2)COC1 (stereo not drawn) [Compound 529, 2-(3-(3-((4-methyl-4H-1,2,4-triazol-3-yl)methyl)oxetan-3-yl)phenyl)-6-((THF-2-yl)methyl)-4-(trifluoromethyl)isoindolin-1-one] | ≤ 100 nM | 2.51 to 5 | > 7.5 | 1.01 to 1.3 | 1.01 to 1.3 | < 100 nM | 0.101 to 0.15 | 0.801 to 1 |
| CN1CCC(=O)C(Cc2cc3c(c(C(F)(F)F)c2)CN(c2cccc(C4(Cc5nncn5C)COC4)c2)C3=O)C1 (stereo not drawn) [Compound 531, 6-((l-methyl-4-oxopiperidin-3-yl)methyl)-2-(3-(3-((4-methyl-4H-1,2,4-triazol-3-yl)methyl)oxetan-3-yl)phenyl)-4-(trifluoromethyl)isoindolin-1-one] | ≤ 100 nM | > 7.5 | > 7.5 | 1.01 to 1.3 | 1.01 to 1.3 | < 100 nM | > 0.201 | > 1 |
| Cc1conc1CC1(c2cccc(N3Cc4c(cc(CN5CCC6(CC6)C5)cc4C(F)(F)F)C3=O)c2)COC1 [Compound 535, 6-{5-azaspiro[2.4]heptan-5-ylmethyl}-2-(3-{3-[(4-methyl-1,2-oxazol-3-yl)methyl]oxetan-3-yl}phenyl)-4-(trifluoromethyl)-3H-isoindol-1-one] | ≤ 100 nM | > 7.5 | > 7.5 | 1.31 to 1.5 | 1.31 to 1.5 | < 100 nM | > 0.201 | > 1 |
| Cn1cnnc1CC1(c2cccc(N3Cc4c(cc(CN5CC(F)C5(C)C)cc4C(F)(F)F)C3=O)c2)COC1 (stereo not drawn) [Compound 536, 6-((3-fluoro-2,2-dimethylazetidin-1-yl)methyl)-2-(3-(3-((4-methyl-4H-1,2,4-triazol-3-yl)methyl)oxetan-3-yl)phenyl)-4-(trifluoromethyl)isoindolin-1-one] | ≤ 100 nM | 2.51 to 5 | 5 to 7.5 | 1.31 to 1.5 | 1.31 to 1.5 | < 100 nM | 0.101 to 0.15 | > 1 |
